In US9839642B2, “Beta-tetrazolyl-propionic acids as metallo-beta-lactamase inhibitors” (priority 2014, dated 2017):
pIC50: −log10 of the molar value. Where two headings read alike, the source gives them in different places.

Columns and labels:
IMP-1 = IMP-1 (Serratia marcescens, UniProt P52699); assay: Enzyme activity: determination of IC50, fluorescence assay with CCF2-FA substrate; type: biochemical; conditions: CCF2-FA 1.25 μM, 2 hours at 25° C., read-out: IMP1 IC50
Procedure, shortened: (§1)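 In pH 7 phosphate buffer (100 mM) with 10 μM ZnSO4 and 0.005% Tween-20, CCF2-FA substrate (1.25 μM final) was hydrolysed for 2 h at 25 °C by NDM-1, IMP-1 or VIM-1 at 1, 2 or 30 pM in the presence of inhibitor at 20–0.00063 μM. Emission 460 nm/excitation 405 nm; 4-parameter curve fit gave IC50.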

NDM-1 = NDM-1 (Klebsiella pneumoniae, UniProt C7C422); assay: as above; type: biochemical; conditions: CCF2-FA 1.25 μM, 2 hours at 25° C., read-out: NDM1 IC50
NDM-1, sequence (C7C422 29-270, looked up, species assumed): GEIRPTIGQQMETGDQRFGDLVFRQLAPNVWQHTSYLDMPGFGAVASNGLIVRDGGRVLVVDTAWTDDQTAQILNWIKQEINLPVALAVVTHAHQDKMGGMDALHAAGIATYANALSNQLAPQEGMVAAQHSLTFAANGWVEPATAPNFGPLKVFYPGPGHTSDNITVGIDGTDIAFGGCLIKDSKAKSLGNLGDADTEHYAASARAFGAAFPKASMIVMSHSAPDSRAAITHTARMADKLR
Procedure, shortened: as §1

VIM-1 = VIM-1 (Pseudomonas aeruginosa, UniProt A0A0F7KYQ8); assay: as above; type: biochemical; conditions: CCF2-FA 1.25 μM, 2 hours at 25° C., read-out: VIM1 IC50
Procedure, shortened: as §1

[1] = tested on: Escherichia coli expressing NDM-1 (CLB30005); assay: Antibiotic potentiation activity: synergistic concentration (MITC95) with imipenem, growth by OD600; type: cell-based
Procedure, shortened: (§2)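 MITC95 = lowest inhibitor concentration giving 95% growth inhibition, read by absorbance after 22–24 h at 35° C. Compound range 200 μM to 0.195 μM, imipenem fixed at 1 or 4 μg/ml, bacteria in 1.1×CAMHB from saline suspension diluted 1:100.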

[2] = tested on: Klebsiella pneumoniae expressing VIM-1 (IHMA599644); assay: as above; type: cell-based
Procedure, shortened: as §2

[3] = tested on: Serratia marcescens expressing IMP-1 (CL5741); assay: as above; type: cell-based
Procedure, shortened: as §2

[4] = 95% inhibition of bacterial growth, strain CLB30005
[5] = 95% inhibition of bacterial growth, strain IHMA599644
[6] = 95% inhibition of bacterial growth, strain CL5741
[7] = E. coli CLB30005 (NDM-1), 95% inhibition of growth
[8] = K. pneumoniae IHMA599644 (VIM-1), 95% inhibition of growth
[9] = S. marcescens CL5741 (IMP-1), 95% inhibition of growth

IMP-1, sequence (P52699 19-246, looked up, species assumed): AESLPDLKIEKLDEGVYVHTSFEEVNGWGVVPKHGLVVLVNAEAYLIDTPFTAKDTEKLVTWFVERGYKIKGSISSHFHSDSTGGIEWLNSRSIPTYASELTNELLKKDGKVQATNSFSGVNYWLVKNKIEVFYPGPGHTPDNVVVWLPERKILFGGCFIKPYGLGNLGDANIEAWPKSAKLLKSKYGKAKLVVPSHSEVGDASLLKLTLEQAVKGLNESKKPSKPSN

SMILES	pIC50 (IMP-1; enzyme 2 pM)	pIC50 (NDM-1; enzyme 1 pM)	pIC50 (VIM-1; enzyme 30 pM)	NDM1 EC30005 MITC95 [1, 4] [µM]	VIM1 KP599644 MITC95 [2, 5] [µM]	IMP1 SM5741 MITC95 [3, 6] [µM]	pIC50 (IMP-1; IMP-1 enzyme 2 pM)	pIC50 (NDM-1; NDM-1 enzyme 1 pM)	pIC50 (VIM-1; VIM-1 enzyme 30 pM)	NDM1 EC30005 MITC95 [1, 7] [µM]	VIM1 KP599644 MITC95 [2, 8] [µM]	IMP1 SM5741 MITC95 [3, 9] [µM]
CCC[C@H](C(=O)O)[C@H](Cc1ccc(-c2c(C)nn(C)c2C)cc1)c1nnn[nH]1 [Example 235, (2S)-2-{(1S)-1-(1H-tetrazol-5-yl)-2-[4-(1,3,5-trimethyl-1H-pyrazol-4-yl)phenyl]ethyl}pentanoic acid]	8.24	8.08	8.12	100	>200	0.78						
CCC[C@H](C(=O)O)[C@H](Cc1ccc(-c2ccc3c(c2)CNCC3)cc1)c1nnn[nH]1 [Example 236, (2S)-2-[(1S)-2-[4-(1,2,3,4-tetrahydroisoquinolin-7-yl)phenyl]-1-(1H-tetrazol-5-yl)ethyl]pentanoic acid]	7.15	7.00	8.36	12.5	50	7.8						
CCC[C@H](C(=O)O)[C@H](Cc1ccc(-c2ccc3c(c2)CCNC3)cc1)c1nnn[nH]1 [Example 237, (2S)-2-[(1S)-2-[4-(1,2,3,4-tetrahydroisoquinolin-6-yl)phenyl]-1-(1H-tetrazol-5-yl)ethyl]pentanoic acid]	7.06	7.06	8.40	9.4	38	4.7						
CCC[C@H](C(=O)O)[C@H](Cc1ccc(-c2cccc3c2CNC3=O)cc1)c1nnn[nH]1 [Example 238, (2S)-2-[(1S)-2-[4-(1-oxo-2,3-dihydro-1H-isoindol-4-yl)phenyl]-1-(1H-tetrazol-5-yl)ethyl]pentanoic acid]	7.31	8.19	8.77	50	200	6.2						
CCC[C@H](C(=O)O)[C@H](Cc1ccc(-c2ccc3nncn3c2)cc1)c1nnn[nH]1 [Example 239, (2S)-2-[(1S)-1-(1H-tetrazol-5-yl)-2-(4-[1,2,4]triazolo[4,3-a]pyridin-6-ylphenyl)ethyl]pentanoic acid]	6.72	7.70	8.77	38	75	38						
CCC[C@H](C(=O)O)[C@H](Cc1ccc(-c2ccc(CN(C)C)cc2)cc1)c1nnn[nH]1 [Example 240, (2S)-2-[(1S)-2-{4′-[(dimethylamino)methyl]biphenyl-4-yl}-1-(1H-tetrazol-5-yl)ethyl]pentanoic acid]	7.12	7.00	8.19	25	125	7.8						
CCC[C@H](C(=O)O)[C@H](Cc1ccc(-c2ccc3ncnn3c2)cc1)c1nnn[nH]1 [Example 241, (2S)-2-[(1S)-1-(1H-tetrazol-5-yl)-2-(4-[1,2,4]triazolo[1,5-a]pyridin-6-ylphenyl)ethyl]pentanoic acid]	7.24	7.89	9.19	75	38	9.4						
CCC[C@H](C(=O)O)[C@H](Cc1ccc(-c2cnc(N(C)S(C)(=O)=O)nc2)cc1)c1nnn[nH]1 [Example 242, (2S)-2-[(1S)-2-(4-{2-[methyl(methyl-sulfonyl)amino]pyrimidin-5-yl}phenyl)-1-(1H-tetrazol-5-yl)ethyl]pentanoic acid]	7.15	8.03	8.80	38	100	12.5						
CCC[C@H](C(=O)O)[C@H](Cc1ccc(C2=CCCN(C)C2)cc1)c1nnn[nH]1 [Example 243, (2S)-2-[(1S)-2-[4-(1-methyl-1,2,5,6-tetrahydropyridin-3-yl)phenyl]-1-(1H-tetrazol-5-yl)ethyl]pentanoic acid]	6.30	6.40	8.42	18.8	25	25						
CCC[C@H](C(=O)O)[C@H](Cc1ccc(-c2cnc(C)c(C)n2)cc1)c1nnn[nH]1 [Example 244, (2S)-2-[(1S)-2-[4-(5,6-dimethylpyrazin-2-yl)phenyl]-1-(1H-tetrazol-5-yl)ethyl]pentanoic acid]							6.60	7.18	8.32	9.4	38	25
CCC[C@H](C(=O)O)[C@H](Cc1ccc(-c2ccc3c(c2)CNC3)cc1)c1nnn[nH]1 [Example 245, (2S)-2-[(1S)-2-[4-(2,3-dihydro-1H-isoindol-5-yl)phenyl]-1-(1H-tetrazol-5-yl)ethyl]pentanoic acid]							7.07	7.24	8.43	9.4	25	6.2
CCC[C@H](C(=O)O)[C@H](Cc1ccc(-c2ccc(-c3nnn[nH]3)cc2)cc1)c1nnn[nH]1 [Example 246, (2S)-2-{(1S)-1-(1H-tetrazol-5-yl)-2-[4′-(1H-tetrazol-5-yl)biphenyl-4-yl]ethyl}pentanoic acid]							8.01	8.96	8.66	38	100	6.2
CCC[C@H](C(=O)O)[C@H](Cc1ccc(-c2cnc3[nH]c(=O)[nH]c3c2)cc1)c1nnn[nH]1 [Example 247, (2S)-2-[(1S)-2-[4-(2-oxo-2,3-dihydro-1H-imidazo[4,5-b]pyridin-6-yl)phenyl]-1-(1H-tetrazol-5-yl)ethyl]pentanoic acid]							7.04	7.89	9.19	31	100	16
CCC[C@@H](C(=O)O)[C@H](Cc1ccc(-c2ccc3nnn(C)c3c2)cc1)c1nnn[nH]1 [Example 248, (2R)-2-[(1S)-2-[4-(1-methyl-1H-benzotriazol-6-yl)phenyl]-1-(1H-tetrazol-5-yl)ethyl]pentanoic acid]							5.33	6.15	6.64	100	>200	>200
CCC[C@H](C(=O)O)[C@H](Cc1ccc(-c2cnc(CO)s2)cc1)c1nnn[nH]1 [Example 249]							7.34	8.08	8.72	100	100	>200
CCC[C@H](C(=O)O)[C@H](Cc1ccc(-c2cnn(Cc3ccncc3)c2)cc1)c1nnn[nH]1 [Example 250, (2S)-2-[(1S)-2-{4-[1-(pyridin-4-ylmethyl)-1H-pyrazol-4-yl]phenyl}-1-(1H-tetrazol-5-yl)ethyl]pentanoic acid]							7.09	8.02	8.12	25	>200	200
